Source: patent publication US7351709B2, “Estrogen receptor ligands” (Wyeth, priority 2004, dated 2008)

What was measured:
ERα [1] = molecular target: T1, ERα (Homo sapiens, UniProt P03372); experiment: IL-6 assay: inhibition of IL-1β induced IL-6 expression in ERα infected HAECT-1 cells; assay type: cell-based; conditions: for IC50: Ad5-wt-ER infected HAECT-1 cells, IL-1β stimulated, IL-6 by ELISA; for ER/IL-6 % E2: efficacy relative to the maximal inhibition observed with E2
T1 construct: expressed in transfected cells; host or cells: HAECT-1 cells infected with Ad5-wt-ER adenovirus
T1 sequence (P03372 1-595): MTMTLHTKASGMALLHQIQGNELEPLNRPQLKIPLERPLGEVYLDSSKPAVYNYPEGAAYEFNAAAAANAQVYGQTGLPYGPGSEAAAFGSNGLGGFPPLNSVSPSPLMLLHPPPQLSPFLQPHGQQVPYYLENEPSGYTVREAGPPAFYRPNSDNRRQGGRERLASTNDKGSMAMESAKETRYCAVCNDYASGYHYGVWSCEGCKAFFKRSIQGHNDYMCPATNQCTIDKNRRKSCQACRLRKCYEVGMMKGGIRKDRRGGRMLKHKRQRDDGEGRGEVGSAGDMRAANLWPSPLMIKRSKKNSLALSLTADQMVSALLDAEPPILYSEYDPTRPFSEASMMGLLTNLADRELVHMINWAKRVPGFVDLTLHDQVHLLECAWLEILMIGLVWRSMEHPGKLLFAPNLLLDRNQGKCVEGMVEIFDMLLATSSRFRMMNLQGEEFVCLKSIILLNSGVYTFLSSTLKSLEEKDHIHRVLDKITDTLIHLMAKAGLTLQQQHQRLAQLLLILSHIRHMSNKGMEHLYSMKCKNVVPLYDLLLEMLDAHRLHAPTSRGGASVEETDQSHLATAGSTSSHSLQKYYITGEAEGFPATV
Method: (§1) ERα infected HAECT-1 cells or control cells were thawed, diluted 42× in warm EBM-BSA, plated into 96-well plates at 0.1 ml/well and incubated for 4 h at 34° C. Test compounds were added to the cells as 2× stocks in EBM-BSA containing 2 ng/ml IL-1β (R&D Systems) and plates were returned to the incubator (34° C.). After 15-20 h, 100 μl aliquots of media were removed from the cells and assayed for IL-6 content using a BioSource human IL-6 ELISA Kit. Cells were subsequently washed with 300 μl of Dulbecco's phosphate buffered saline and lysed in 50 μl of Cell Culture Lysis Reagent (Promega). Creatine kinase was determined from the rate of increase in A340 following addition of 100 μl of CK assay reagent (Sigma, cat. No 47-10) to the remainder of the cell lysate.
(§2) For IC50 and EC50 calculations, mean IL-6 or CK values versus log10 of the compound concentration were fitted to a four parameter logistic equation. The IC50/EC50 value, ‘Hill slope’, upper and lower limits of the curve were iteratively estimated.

ERα [2] = molecular target: T1, ERα; experiment: Creatine kinase (CK) assay in ERα infected HAECT-1 cells; assay type: cell-based
Method: as §1, §2

[3] = Ad5-wt-ER infected HAECT-1 cells, creatine kinase in cell lysate

| Structure (SMILES) | IC50 (ERα [1]) [nM] | ER/IL-6 % E2 (ERα [1]) [% E2] | EC50 (ERα [2]; [3]) [nM] | ER/CK % E2 (ERα [2]; efficacy relative to the maximal stimulation observed with E2) [% E2] | ER/CK EC50 (nM) (ERα [2]; [3]) |
| --- | --- | --- | --- | --- | --- |
| CC[C@H]1C(=O)N(Cc2ccccc2)c2ccc(F)cc2N1S(=O)(=O)c1ccc(O)cc1 [Example 24, (3S)-1-benzyl-3-ethyl-6-fluoro-4-[(4-hydroxyphenyl)sulfonyl]-3,4-dihydroquinoxalin-2(1H)-one] | 534 | 40 | – | – | – |
| CC[C@H]1C(=O)N(CC)c2cc(Br)ccc2N1S(=O)(=O)c1ccc(O)cc1 [Example 31, (3S)-7-Bromo-1,3-diethyl-4-[(4-hydroxyphenyl)sulfonyl]-3,4-dihydroquinoxalin-2(1H)-one] | 1570 | 71 | – | – | – |
| CC[C@H]1C(=O)N(CC)c2cc(F)ccc2N1S(=O)(=O)c1ccc(O)cc1 [Example 30, (3S)-1,3-Diethyl-7-fluoro-4-[(4-hydroxyphenyl)sulfonyl]-3,4-dihydroquinoxalin-2(1H)-one] | 738 | 63 | 43 | 9 | – |
| CC[C@H]1C(=O)N(C)c2ccc(C)cc2N1S(=O)(=O)c1ccc(O)cc1 [Example 28, (3S)-3-Ethyl-4-[(4-hydroxyphenyl)sulfonyl]-1,6-dimethyl-3,4-dihydroquinoxalin-2(1H)-one] | 296 | 92 | – | – | – |
| CC[C@@H]1C(=O)N(C(C)C)c2ccc(F)cc2N1C(=O)c1ccc(O)cc1 [Example 11, (3R)-3-Ethyl-6-fluoro-4-(4-hydroxybenzoyl)-1-isopropyl-3,4-dihydroquinoxalin-2(1H)-one] | 105 | 91 | – | – | – |
| C=CCN1C(=O)[C@@H](CC)N(C(=O)c2ccc(O)cc2)c2cc(F)ccc21 [Example 10, (3R)-1-Allyl-3-ethyl-6-fluoro-4-(4-hydroxybenzoyl)-3,4-dihydroquinoxalin-2(1H)-one] | 57 | 95 | – | – | – |
| CC[C@H]1C(=O)N(CC)c2ccc(F)cc2N1S(=O)(=O)c1ccc(O)cc1 [Example 26, (3S)-1,3-Diethyl-6-fluoro-4-[(4-hydroxyphenyl)sulfonyl]-3,4-dihydroquinoxalin-2(1H)-one] | 339 | 81 | – | – | inactive |
| CC[C@@H]1C(=O)N(CC(C)C)c2ccc(F)cc2N1C(=O)c1ccc(O)cc1 [Example 14, (3R)-3-Ethyl-6-fluoro-4-(4-hydroxybenzoyl)-1-isobutyl-3,4-dihydroquinoxalin-2(1H)-one] | 262 | 87 | – | – | – |
| CC[C@@H]1C(=O)N(C2CCCC2)c2ccc(F)cc2N1C(=O)c1ccc(O)cc1 [Example 17, (3R)-1-Cyclopentyl-3-ethyl-6-fluoro-4-(4-hydroxybenzoyl)-3,4-dihydroquinoxalin-2(1H)-one] | 445 | 96 | – | – | – |
| CC[C@@H]1C(=O)N(C)c2ccc(F)cc2N1C(=O)c1ccc(O)cc1 [Example 15, (3R)-3-Ethyl-6-fluoro-4-(4-hydroxybenzoyl)-1-methyl-3,4-dihydroquinoxalin-2(1H)-one] | 102 | 84 | – | – | – |
| CC[C@H]1C(=O)N(CC)c2ccc(F)cc2N1C(=O)c1ccc(O)cc1 [Example 6, (3S)-1,3-Diethyl-6-fluoro-4-(4-hydroxybenzoyl)-3,4-dihydroquinoxalin-2(1H)-one] | 285 | 44 | – | – | – |
| CC[C@@H]1C(=O)N(CC(F)(F)F)c2ccc(F)cc2N1C(=O)c1ccc(O)cc1 [Example 16, (3R)-3-Ethyl-6-fluoro-4-(4-hydroxybenzoyl)-1-(2,2,2-trifluoroethyl)-3,4-dihydroquinoxalin-2(1H)-one] | 204 | 83 | – | – | – |
| CCCCCN1C(=O)[C@@H](CC)N(C(=O)c2ccc(O)cc2)c2cc(F)ccc21 [Example 13, (3R)-3-Ethyl-6-fluoro-4-(4-hydroxybenzoyl)-1-pentyl-3,4-dihydroquinoxalin-2(1H)-one] | 89 | 102 | – | – | – |
| CC[C@H]1C(=O)N(C)c2cc(Br)ccc2N1S(=O)(=O)c1ccc(O)cc1 [Example 32, (3S)-7-bromo-3-ethyl-4-[(4-hydroxyphenyl)sulfonyl]-1-methyl-3,4-dihydroquinoxalin-2(1H)-one] | 429 | 90 | – | – | – |
| C=CCN1C(=O)[C@H](CC)N(S(=O)(=O)c2ccc(O)cc2)c2cc(F)ccc21 [Example 22, (3S)-1-Allyl-3-ethyl-6-fluoro-4-[(4-hydroxyphenyl)sulfonyl]-3,4-dihydroquinoxalin-2(1H)-one] | 5600 | 55 | – | – | – |
| CC[C@@H]1C(=O)N(CC)c2ccc(F)cc2N1C(=O)c1ccc(O)cc1 [Example 8, (3R)-1,3-Diethyl-6-fluoro-4-(4-hydroxybenzoyl)-3,4-dihydroquinoxalin-2(1H)-one] | 139 | 99 | – | – | – |
| CCCCN1C(=O)[C@H](CC)N(S(=O)(=O)c2ccc(O)cc2)c2cc(F)ccc21 [Example 23, (3S)-1-Butyl-3-ethyl-6-fluoro-4-[(4-hydroxyphenyl)sulfonyl]-3,4-dihydroquinoxalin-2(1H)-one] | 313 | 106 | – | – | – |
| CCCCN1C(=O)[C@@H](CC)N(C(=O)c2ccc(O)cc2)c2cc(F)ccc21 [Example 12, (3R)-1-Butyl-3-ethyl-6-fluoro-4-(4-hydroxybenzoyl)-3,4-dihydroquinoxalin-2(1H)-one] | 52 | 95 | – | – | – |
| CCCN1C(=O)[C@H](CC)N(S(=O)(=O)c2ccc(O)cc2)c2cc(F)ccc21 [Example 20, (3S)-3-Ethyl-6-fluoro-4-[(4-hydroxyphenyl)sulfonyl]-1-propyl-3,4-dihydroquinoxalin-2(1H)-one] | 157 | 79 | – | – | – |
| CC[C@H]1C(=O)N(CC)c2ccc(C)cc2N1S(=O)(=O)c1ccc(O)cc1 [Example 27, (3S)-1,3-diethyl-4-[(4-hydroxyphenyl)sulfonyl]-6-methyl-3,4-dihydroquinoxalin-2(1H)-one] | 447 | 63 | – | – | – |
| CC[C@H]1C(=O)N(CC)c2ccc(Br)cc2N1S(=O)(=O)c1ccc(O)cc1 [Example 33, (3S)-6-bromo-1,3-diethyl-4-[(4-hydroxyphenyl)sulfonyl]-3,4-dihydroquinoxalin-2(1H)-one] | 413 | 92 | – | – | – |
| CCCN1C(=O)[C@@H](CC)N(C(=O)c2ccc(O)cc2)c2cc(F)ccc21 [Example 9, (3R)-3-Ethyl-6-fluoro-4-(4-hydroxybenzoyl)-1-propyl-3,4-dihydroquinoxalin-2(1H)-one] | 222 | 96 | – | – | – |
| CC[C@H]1C(=O)N(C)c2ccc(Br)cc2N1S(=O)(=O)c1ccc(O)cc1 [Example 34, (3S)-6-bromo-3-ethyl-4-[(4-hydroxyphenyl)sulfonyl]-1-methyl-3,4-dihydroquinoxalin-2(1H)-one] | 258 | 128 | – | – | – |
| CCN1C(=O)[C@H](C)N(S(=O)(=O)c2ccc(O)cc2)c2cc(F)ccc21 [Example 21, (3S)-1-Ethyl-6-fluoro-4-[(4-hydroxyphenyl)sulfonyl]-3-methyl-3,4-dihydroquinoxalin-2(1H)-one] | 181 | 56 | – | – | – |
| CC[C@H]1C(=O)N(C)c2ccc(F)cc2N1C(=O)c1ccc(O)cc1 [Example 7, (3S)-3-Ethyl-6-fluoro-4-(4-hydroxybenzoyl)-1-methyl-3,4-dihydroquinoxalin-2(1H)-one] | 303 | 44 | – | – | – |
